pIC50: −log10 of the molar value.
What was measured:
[1] = system: caspase 3, 8 and 9 in HLE cells; assay: Protein extract based caspase 3/8/9 colorimetric assays; type: cell-based, human; settings: 24 hr
Method: FIG. 23. (A). […] HLE cells were grown in a T75 flask and treated with DBZIM for 24 hr. The cells were then lysed and cytoplasmic protein was collected for assaying caspase 8, 9 and 3 using kits from Biovision. The data was normalized against the vehicle control. (B). […] HLE cells were treated by DBZIM of 1.5 mM for 24 hr. Cytosolic and mitochondria protein fractions were collected using a kit from Biovision. 15 μg of each protein was resolved in 4-12% gradient PAGE-SDS gel. The target proteins were recognized by antibody of cytochrome C, and visualized by the ECL method. The membrane was stripped and probed for the α-tubulin as the loading control for cytosolic fraction and Cox4 for mitochondria fraction.
Capspase 3/8/9 activities were determined using total protein extract as starting material (Biovision Inc., CA, USA). HLE cells were cultured in T75 flask and treated with DBZIM of various concentrations. Cytosolic protein extract was collected by pelleting and lysing the cells and centrifugation to remove the debris. Capspase 3, 8 and 9 activities were assayed using the same protein extract but adding the respective substrate. Absorbance readings were taken at 405 nm using Tecan Safire II plate reader. Results were expressed as relative caspase activity by normalizing to control cells without compound treatment.

HLE cells [2] = assay: ROS determination in HLE cells (dihydroethidium); type: cell-based, human; settings: millimolar range, 24 hr
Method: FIG. 27. High dose DBZIM induced ROS production in HLE cells. HLE cells were grown in 96-Well plate and treated by DBZIM for 24 hr. The cells were then fixed and stained by DHE for quantification of ROS generation. The images ware acquired and analyzed using ArrayScan VTI HCS reader (Thermal Scientific, PA, USA) and Target Activation BioApplication software.
Oxidative stress was measured using Cellomic HitKit (Thermo Scientific, IL, USA). HLE cells were treated with DBZIM for 24 hr, fixed and labeled by Dihydroethidium probe for quantitation of ROS generation and Hoechst dye for nuclear staining. The result was analyzed by Target Activation BioApplication software. The percentage of positive responding cells was plotted as the indication of ROS amount.

caspase-3/9 and PARP = assay: Western blot of caspase-3, caspase-9 and PARP in MCF-7 and AGS; type: cell-based, human; settings: 50 μM
Method: FIG. 31. DBZIM induces cleavage of caspase-3, caspase-9 and PARP as indication of apoptosis. Western blot analysis for the effect of DBZIM, on the cleavage of caspase-3, Caspase-9 and PARP A) in p53 wild type gastric cancer cell AGS and B) in p53 wild type breast cancer cell line MCF-7. Western blot analysis conducted on cells after 72 h exposure to 50 μM of DBZIM.
To determine whether cells undergo apoptosis, Western blotting was first performed for a caspase-3/9 and PARP activation with proteins from MCF-7 and AGS treated with DBZIM. […] Similarly we observed a DBZIM-induced elevation of caspase 3/7 in C6 (by 3 folds at 2.0 mM) and in U87 MG (by 17 folds at 2 mM) (FIGS. 30B and 30D).

C6 = assay: Caspase 3/7 activity in C6; type: cell-based, rat; settings: C6, 2.0 mM, 6 hr
Method: FIG. 30. DBZIM inhibited cell proliferation in glioma cell line C6 (A) and U87 MG (C) and induced caspase 3/7 activity in C6 (B) and U87 MG (D). C6 or U87 cells were incubated with DBZIM of various concentrations for 48 hr for proliferation assay and 6 hr for caspase 3/7 activation assay. Proliferation was measured using MTS kit from Promega and expressed as relative cell proliferation with control group was normalized to 1. Caspase 3/7 activity was quantified using a kit from Promega and also expressed as relative caspase 3/7 activity of treated groups over control group.
Capspase 3/7 activity and lactate dehydrogenase (LDH) release were measured by Fluorometric assays (Promega Corp., WI, USA). The HCC cells were cultured in 96-well plate and treated with DBZIM of various concentrations for 6 hr before assays. For caspase 3/7 assay, medium was removed and substrate buffer was added to lyse the cell and react with caspase 3/7 to give rise to fluorescence signal which was read at Ex=485 nm and Em=530 nm on a Tecan Safire II plate reader after 1 hr incubation. The caspase 3/7 activity of sample cells with the compound treatment was expressed as relative fold change after normalizing to the control cells. The LDH assay (indicative of membrane integrity) was performed using a Kit from Promega Corp according to manufactor's instructions.

HLE cells [3] = assay: DNA content analysis (cell cycle) in HLE cells; type: cell-based, human; settings: 0, 1, 3 mM, 24 hr
Method: FIG. 21. DBZIM inhibited cell proliferation and disrupted cell cycle in HLE cells (A). DBZIM inhibited HCC cell proliferation. HLE cells were seeded at a density of 5000 cells/well in 96-well plate, and cultured for 18-24 h in 10% […] DMEM before the addition of various compounds (0-1.25 mM) in 10% FBS DMEM for 48 h of proliferation before assaying. Cell count was calculated based on Hoechst dye staining and BrdU incorporation was based on the total fluorescence intensity of antibody staining. (B). DBZIM arrested HCC cells at G0/G1 phase. HLE cells were incubated with DBZIM (0, 1, 3 mM) for 24 hr before fixation and DAPI staining for DNA content (2N vs. 4N) determination.
HLE cells grown in a 96-well plate were treated with compounds in 6 replicates for 24 hr. Cells were then fixed with 4% paraformaldehyde and stained with DAPI. Cells were analyzed and imaged on ArrayScan VTI HCS reader (Thermal Scientific, PA, USA) and DNA content (2N vs. 4N) was determined based on DAPI staining.

MCF-7 = assay: Proliferation assay (MTS), breast cancer cell line; type: cell-based; settings: Homo sapiens, MCF7, 72 h; MCF-7 (breast cancer), determined at day 3
Method: Proliferation of Glioma cell lines: U87 MG and C6 under the treatment of DBZIM was examined using 3-(4,5-dimethylthiazol-2-yl)-5-(3-carboxymethoxyphenyl)-2-(4-sulfophenyl)-2H-tetrazolium (MTS) based proliferation assay kit (Promega, Wis., USA). MTS reagent was added to the control and treated cells (after 48 hr) directly and the absorbance signal was read at 490 nm using a Tecan Safire II plate reader.
The IC50 value (determined at day 3) was 50 μM for H1299 (lung cancer); 50 μM for MCF-7 (breast cancer), and 40 μM for AGS gastric cancer at day 3 (Table 3).

[4] = Stability in drinking water by NMR analysis; type: physicochemical; settings: room temperature
[5] = dosage of 30 mg/kg (Lin et al. 2004); cited from earlier work

## [Br-].c1ccc(Cn2cc[n+](Cc3ccccc3)c2)cc1 [DBZIM, 1,3-bisbenzylimidazolium bromide]
[1]
  caspase 3 activity: dose-dependently enhanced
  caspase 8 activity: not affected
  caspase 9 activity: dose-dependently enhanced
HLE cells [2]
  ROS generation: generated significant amount of ROS
caspase-3/9 and PARP
  caspase-3/9 and PARP activation: time-dependently increased caspase-3/9 and PARP activity
C6
  elevation of caspase 3/7: 3 folds
HLE cells [3]
  cell cycle arrest: arrested HLE cells in the G0/G1 phase
MCF-7
  pIC50: 4.30

## CC(C)n1cc[n+](C(C)C)c1.F[B-](F)(F)F [DPIM, 1,3-diisopropylimidazolium tetrafluoroborate]
[4]
  stability in water: stable in water at room temperature condition for at least two weeks

## (−)-Epigallocatechin gallate [EGCG, reference compound]
[5]
  half life in rat blood: ~1.2 h
